According to ChEMBL document CHEMBL4266024, “Phytochemical Study of Senecio volckmannii Assisted by CASE-3D with Residual Dipolar Couplings and Isotropic 1H/13C NMR Chemical Shifts” (2018):

Legend:
Format in all cases: functional
HeLa = assay: Growth inhibition of human HeLa cells after 48 hrs by sulforhodamine B assay
HBL-100 = assay: Growth inhibition of human HBL100 cells after 48 hrs by sulforhodamine B assay; details: HBL-100, 48 h
T47D = assay: Growth inhibition of human T47D cells after 48 hrs by sulforhodamine B assay
A549 = assay: Growth inhibition of human A549 cells after 48 hrs by sulforhodamine B assay; details: A549, 48 h
WiDr = assay: Growth inhibition of human WiDr cells after 48 hrs by sulforhodamine B assay
SW1573 = assay: Growth inhibition of human SW1573 cells after 48 hrs by sulforhodamine B assay; details: SW1573, 48 h

Measured: GI50

CC(C)=C1C[C@@]2(C)C(=CC1=O)CCC[C@@H]2C
> 10 µM: all assays above

C[C@H]1CCCC2=CC(=O)C(C(C)(C)O)=C[C@@]21C
> 10 µM: all assays above

CC1=C2C[C@@]3(C)[C@H](C[C@@]2(O)OC1=O)C(=O)CC[C@@H]3C
> 10 µM: all assays above

CC(C)=C1C[C@@]2(C)C(=CC1=O)[C@@H](O)CC[C@@H]2C
> 10 µM: all assays above

C[C@H]1CCCC2=CC(=O)[C@H](C(C)(C)O)C[C@@]21C
> 10 µM: all assays above

CC(C)=C1C[C@@]2(C)C(=CC1=O)[C@H](O)CC[C@@H]2C
> 10 µM: all assays above

C[C@H]1CC[C@@H](O)C2=CC(=O)C(C(C)(C)O)=C[C@@]21C (relative stereo)
> 10 µM: all assays above

CC(=O)C1=C[C@@]2(C)C(=CC1=O)CCC[C@@H]2C (relative stereo)
> 10 µM: all assays above

CC(C)=C1C[C@@]2(C)[C@H](CCC(=O)[C@@H]2C)CC1=O (relative stereo)
> 10 µM: all assays above
